In patent publication US8952024B2, “Herbicidal pyrimidone derivatives” (E I du Pont de Nemours and Company, priority 2009, dated 2015):

Columns and labels:
Format in all cases: in vivo
[1] = tested on: giant foxtail (Setaria faberii); experiment: Test B pre-/postemergence plant response; settings: for Foxtail, Giant plant response rating (0 to 100 scale): 62 g ai/ha, 0 is no effect, 13 to 15 days
Outline: (§1)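 Pre-em in loam/sand; post-em at 1–4 leaf (2–18 cm) in peat mix. Solvent + surfactant formulation. Greenhouse 13–15 d; visual % control vs untreated, 0–100.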

[2] = tested on: ragweed (common ragweed, Ambrosia elatior); experiment: Test B pre-/postemergence plant response; settings: for Ragweed plant response rating (0 to 100 scale): 62 g ai/ha, 0 is no effect, 13 to 15 days
Outline: as §1

corn (Zea mays) = experiment: Test B pre-/postemergence plant response; settings: for Corn plant response rating (0 to 100 scale): 62 g ai/ha, 0 is no effect, 13 to 15 days
Outline: as §1

[3] = tested on: goosegrass (Eleusine indica); experiment: Test B pre-/postemergence plant response; settings: for Goosegrass plant response rating (0 to 100 scale): 62 g ai/ha, 0 is no effect, 13 to 15 days
Outline: as §1

[4] = tested on: pigweed (Amaranthus retroflexus); experiment: Test B pre-/postemergence plant response; settings: for Pigweed plant response rating (0 to 100 scale): 62 g ai/ha, 0 is no effect, 13 to 15 days
Outline: as §1

[5] = tested on: Surinam grass (Brachiaria decumbens); experiment: Test B pre-/postemergence plant response; settings: for Surinam Grass plant response rating (0 to 100 scale): 62 g ai/ha, 0 is no effect, 13 to 15 days
Outline: as §1

[6] = tested on: johnsongrass (Sorghum halepense); experiment: Test B pre-/postemergence plant response; settings: for Johnsongrass plant response rating (0 to 100 scale): 62 g ai/ha, 0 is no effect, 13 to 15 days
Outline: as §1

wild oat (Avena fatua) = experiment: Test B pre-/postemergence plant response; settings: for Oat, Wild plant response rating (0 to 100 scale): 62 g ai/ha, 0 is no effect, 13 to 15 days
Outline: as §1

[7] = tested on: lambsquarters (Chenopodium album); experiment: Test B pre-/postemergence plant response; settings: for Lambsquarters plant response rating (0 to 100 scale): 62 g ai/ha, 0 is no effect, 13 to 15 days
Outline: as §1

[8] = tested on: green foxtail (Setaria viridis); experiment: Test B pre-/postemergence plant response; settings: for Foxtail, Green plant response rating (0 to 100 scale): 62 g ai/ha, 0 is no effect, 13 to 15 days
Outline: as §1

[9] = tested on: blackgrass (Alopecurus myosuroides); experiment: Test B pre-/postemergence plant response; settings: for Blackgrass plant response rating (0 to 100 scale): 62 g ai/ha, 0 is no effect, 13 to 15 days
Outline: as §1

[10] = tested on: umbrella sedge (Cyperus difformis); experiment: Test B flooded paddy test; settings: for Plant response rating, Flood, Sedge, Umbrella: 250 g ai/ha, flooded paddy test, visual rating on 0 to 100 scale (0 no effect, 100 complete control) after 13 to 15 days; for Plant response rating, Sedge, Umbrella: Flood (flooded paddy test), 13 to 15 days; for Sedge, Umbrella plant response rating: Flood, 31 g ai/ha, scale 0 to 100 (0 no effect, 100 complete control)
Outline: (§2)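 Visual scores run from 0 (no effect) to 100 (complete control), assigned by comparison with controls 13 to 15 days after treatment. Test compounds went straight into water standing 3 cm above the soil, around plants at the 2-leaf stage kept in a greenhouse.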

rice (Oryza sativa) = experiment: Test B flooded paddy test; settings: for Plant response rating, Flood, Rice: 250 g ai/ha, flooded paddy test, visual rating on 0 to 100 scale (0 no effect, 100 complete control) after 13 to 15 days; for Plant response rating, Rice: Flood (flooded paddy test), 13 to 15 days; for Rice plant response rating: Flood, 31 g ai/ha, scale 0 to 100 (0 no effect, 100 complete control)
Outline: as §2

[11] = 31 g ai/ha, postemergence, scale 0 to 100, 0 is no effect, 100 is complete control
[12] = postemergence, 100 is complete control
[13] = Postemergence, 250 g ai/ha, scale 0 to 100 (0 no effect, 100 complete control)
[14] = Postemergence, 125 g ai/ha, visual rating after 13 to 15 days, scale 0 (no effect) to 100 (complete control)
[15] = 62 g ai/ha, scale of 0 to 100 where 0 is no effect and 100 is complete control
[16] = 125 g ai/ha, scale 0 to 100, 0 is no effect, 100 is complete control

CCCCCn1c(-c2ccccc2)ncc(C(=O)C2=C(O)CCCC2=O)c1=O [Compound 89]
Plant response rating, Foxtail, Giant [1, 11]: 70 | Foxtail, Giant plant response rating (0 to 100 scale) [1, 12]: 85 | Plant response rating, Foxtail, Giant [1, 13]: 98 | Plant response rating, Ragweed [2, 11]: 70 | Ragweed plant response rating (0 to 100 scale) [2, 12]: 85 | Plant response rating, Ragweed [2, 13]: 100 | Plant response rating, Corn (corn (Zea mays); [11]): 80 | Corn plant response rating (0 to 100 scale) (corn (Zea mays); [12]): 95 | Plant response rating, Corn (corn (Zea mays); [14]): 98 | Plant response rating, Corn (corn (Zea mays); [13]): 98 | Plant response rating, Goosegrass [3, 11]: 55 | Goosegrass plant response rating (0 to 100 scale) [3, 12]: 65 | Plant response rating, Goosegrass [3, 13]: 80 | Plant response rating, Pigweed [4, 11]: 80 | Pigweed plant response rating (0 to 100 scale) [4, 12]: 98 | Plant response rating, Pigweed [4, 13]: 100 | Plant response rating, Surinam Grass [5, 11]: 55 | Surinam Grass plant response rating (0 to 100 scale) [5, 12]: 75 | Plant response rating, Surinam Grass [5, 13]: 95 | Plant response rating, Johnsongrass [6, 11]: 25 | Johnsongrass plant response rating (0 to 100 scale) [6, 12]: 90 | Plant response rating, Johnsongrass [6, 13]: 100 | Plant response rating, Oat, Wild (wild oat (Avena fatua); [11]): 10 | Oat, Wild plant response rating (0 to 100 scale) (wild oat (Avena fatua); [12]): 10 | Plant response rating, Oat, Wild (wild oat (Avena fatua); [13]): 50 | Plant response rating, Lambsquarters [7, 11]: 95 | Lambsquarters plant response rating (0 to 100 scale) [7, 12]: 98 | Plant response rating, Lambsquarters [7, 13]: 100 | Plant response rating, Foxtail, Green [8, 11]: 60 | Foxtail, Green plant response rating (0 to 100 scale) [8, 12]: 70 | Plant response rating, Foxtail, Green [8, 13]: 80 | Plant response rating, Blackgrass [9, 11]: 10 | Blackgrass plant response rating (0 to 100 scale) [9, 12]: 15 | Plant response rating, Blackgrass [9, 14]: 20 | Plant response rating, Blackgrass [9, 13]: 30 | Plant response rating, Flood, Sedge, Umbrella [10]: 85 | Plant response rating, Sedge, Umbrella [10, 15]: 85 | Plant response rating, Sedge, Umbrella [10, 16]: 85 | Sedge, Umbrella plant response rating [10]: 30 | Plant response rating, Flood, Rice (rice (Oryza sativa)): 15 | Plant response rating, Rice (rice (Oryza sativa); [15]): 0 | Plant response rating, Rice (rice (Oryza sativa); [16]): 0 | Rice plant response rating (rice (Oryza sativa)): 0

CC(C)n1c(-c2ccccc2)ncc(C(=O)C2=C(O)CCCC2=O)c1=O [Compound 95]
Plant response rating, Foxtail, Giant [1, 11]: 45 | Foxtail, Giant plant response rating (0 to 100 scale) [1, 12]: 65 | Plant response rating, Foxtail, Giant [1, 13]: 85 | Plant response rating, Ragweed [2, 11]: 75 | Ragweed plant response rating (0 to 100 scale) [2, 12]: 80 | Plant response rating, Ragweed [2, 13]: 95 | Plant response rating, Corn (corn (Zea mays); [11]): 0 | Corn plant response rating (0 to 100 scale) (corn (Zea mays); [12]): 0 | Plant response rating, Corn (corn (Zea mays); [14]): 25 | Plant response rating, Corn (corn (Zea mays); [13]): 35 | Plant response rating, Goosegrass [3, 11]: 65 | Goosegrass plant response rating (0 to 100 scale) [3, 12]: 75 | Plant response rating, Goosegrass [3, 13]: 90 | Plant response rating, Pigweed [4, 11]: 85 | Pigweed plant response rating (0 to 100 scale) [4, 12]: 98 | Plant response rating, Pigweed [4, 13]: 100 | Plant response rating, Surinam Grass [5, 11]: 45 | Surinam Grass plant response rating (0 to 100 scale) [5, 12]: 45 | Plant response rating, Surinam Grass [5, 13]: 70 | Plant response rating, Johnsongrass [6, 11]: 5 | Johnsongrass plant response rating (0 to 100 scale) [6, 12]: 10 | Plant response rating, Johnsongrass [6, 13]: 45 | Plant response rating, Oat, Wild (wild oat (Avena fatua); [11]): 0 | Oat, Wild plant response rating (0 to 100 scale) (wild oat (Avena fatua); [12]): 0 | Plant response rating, Oat, Wild (wild oat (Avena fatua); [13]): 0 | Plant response rating, Lambsquarters [7, 11]: 80 | Lambsquarters plant response rating (0 to 100 scale) [7, 12]: 98 | Plant response rating, Lambsquarters [7, 13]: 100 | Plant response rating, Foxtail, Green [8, 11]: 20 | Foxtail, Green plant response rating (0 to 100 scale) [8, 12]: 50 | Plant response rating, Foxtail, Green [8, 13]: 90 | Plant response rating, Blackgrass [9, 11]: 0 | Blackgrass plant response rating (0 to 100 scale) [9, 12]: 0 | Plant response rating, Blackgrass [9, 14]: 0 | Plant response rating, Blackgrass [9, 13]: 5 | Plant response rating, Flood, Sedge, Umbrella [10]: 75 | Plant response rating, Sedge, Umbrella [10, 15]: 20 | Plant response rating, Sedge, Umbrella [10, 16]: 50 | Sedge, Umbrella plant response rating [10]: 0 | Plant response rating, Flood, Rice (rice (Oryza sativa)): 30 | Plant response rating, Rice (rice (Oryza sativa); [15]): 20 | Plant response rating, Rice (rice (Oryza sativa); [16]): 30 | Rice plant response rating (rice (Oryza sativa)): 0
